Experimental data as given in article PMC6941357, “An in vitro toolbox to accelerate anti-malarial drug discovery and development” (Malaria Journal, 2020).
Where “and” joins values, the source holds several entries; their conditions need not be identical. Identical values can stand only once. Like-named read-outs stand apart in the source and are kept apart here. Marks after values point to notes of the source that are not given here.

Key:
[1] = Solubility in biorelevant media; details: for solubility at 1 h / solubility: thermodynamic from solid
Experimental: Solubility of each active pharmaceutical ingredient was evaluated at 37 °C in pH 7.4 phosphate buffered saline (prepared as described for the partitioning experiments), fasted (FaSSIF-V2) and fed (FeSSIF-V2) state simulated intestinal fluids and fasted state simulated gastric fluid (FaSSGF) as described by Jantratid et al.. […] Samples were vortexed and placed in a 37 °C incubator on an orbital mixer (IKA® VXR basic Vibrax® orbital mixer) set at 600 rpm. Sampling times were 1 h for FaSSGF or 5–6 h for FaSSIF-V2, FeSSIF-V2, and PBS. These times were used to reflect the maximal likely residence times within the stomach and small intestine, respectively. Sampling was carried out by centrifuging each sample at 10,000 rpm for 3 min, transferring 300 µL aliquots into fresh Eppendorf tubes and centrifuging these tubes again at 10,000 rpm for 3 min. Triplicate aliquots of the supernatant were then removed and diluted 1:2 in 50% aqueous methanol and then again in 50% aqueous acetonitrile to be within the analytical concentration range. Samples were analysed by LC–MS along with calibration standards (Additional file 1: Table S2).

[2] = target: T1, Albumax medium (lipid rich bovine serum albumin) (Bos taurus, UniProt P02769); assay: Binding in Albumax medium via ultracentrifugation; format: in vitro ADME; details: for fraction unbound at […], 500 ng/mL: bovine
T1 construct: purchased Gibco, Thermo Fisher Scientific
T1 sequence (P02769 25-607): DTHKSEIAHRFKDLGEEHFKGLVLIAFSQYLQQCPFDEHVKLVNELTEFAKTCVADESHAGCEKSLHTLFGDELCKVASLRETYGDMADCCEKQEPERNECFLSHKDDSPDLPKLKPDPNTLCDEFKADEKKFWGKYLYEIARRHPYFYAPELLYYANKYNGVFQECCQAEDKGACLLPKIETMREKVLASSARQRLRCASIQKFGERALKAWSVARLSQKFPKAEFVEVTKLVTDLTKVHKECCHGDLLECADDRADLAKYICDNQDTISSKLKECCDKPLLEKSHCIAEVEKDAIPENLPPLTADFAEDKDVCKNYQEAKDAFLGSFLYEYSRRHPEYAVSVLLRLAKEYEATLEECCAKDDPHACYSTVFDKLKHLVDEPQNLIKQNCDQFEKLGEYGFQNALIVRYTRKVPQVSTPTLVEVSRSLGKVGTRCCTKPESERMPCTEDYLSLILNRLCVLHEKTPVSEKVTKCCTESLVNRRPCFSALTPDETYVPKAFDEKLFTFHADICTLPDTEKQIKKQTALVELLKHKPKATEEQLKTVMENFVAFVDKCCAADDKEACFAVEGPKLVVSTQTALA
Experimental: An ultracentrifugation method adapted from a previous publication was initially used to assess plasma protein binding and binding in the other media. […] Additional ultracentrifuge tubes containing spiked matrix were maintained at 37 °C, 5% or 10% CO2 or normal atmosphere conditions, with aliquots being taken within 0.5 h of the start and at the end of ultracentrifugation to serve as controls for the assessment of stability and to obtain a measure of the total concentration (Ctotal). Following ultracentrifugation, the pH was checked and an aliquot of protein-free supernate was taken from each ultracentrifuge tube for determination of the unbound concentration (Cunbound).
Total matrix and protein free samples were analysed using a matrix matching approach whereby each sample was mixed in a 1:1 ratio with the opposite blank medium (i.e. blank total matrix or blank protein free buffer). For example, plasma samples were mixed with blank pH 7.4 buffer whereas plasma supernatant samples were mixed with blank plasma. Each of the sample sets were then assayed against a common calibration curve prepared in a 1:1 mixture of total matrix and protein free pH 7.4 buffer. […] The standard deviation for fu was calculated using the propagation of errors approach as described previously. The potential for compound degradation was assessed by comparing the average value for Ctotal at the start and end of the experiment.

[3] = In vitro metabolism (metabolic stability) in human liver microsomes; details: human
Outline: (§1)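 Intrinsic clearance (µL/min/mg protein) came from the first-order substrate-depletion rate in human liver microsomes, using only the initial log-linear phase where kinetics deviated. Samples were quenched at 2, 5, 15, 30 and 60 min and quantified by LC–MS. Unbound CLint was obtained by dividing by microsomal fu.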

human plasma = details: methods UF, ED, EP or not described per compound, ref [6]–[22] of Additional file 1; cited from earlier work
[4] = Bidirectional permeability across Caco-2 cell monolayers; details: human
Outline: (§2)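 Donor and acceptor concentrations measured by LC–MS to give Papp, mass balance and efflux ratio (mean B–A over A–B Papp). Media were pH 7.4 HEPES-buffered HBSS or human plasma on both sides; for plasma, Papp used the donor fraction unbound. Donor contained 0.1% v/v DMSO.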

Caco-2 cell monolayers = assay: as above; details: matrix: human plasma; for A–B Papp / B–A Papp: corrected for fu
Outline: as §2

human liver microsomes = assay: in vitro; details: for HLM CLint: microsomes
Outline: as §1

[5] = FaSSGF, 37 °C, fassgf or other biorelevant
[6] = phosphate buffered saline pH 7.4, 37 °C, pH 7.4, aqueous buffer
[7] = liver microsomes, pH 7.4, HLM CLint, human liver microsomes, average of n = 2 replicates, < 7 means < 15% loss over 60 min
[8] = Caco-2, A–B Papp, matrix: human plasma, corrected for fu

Compound	solubility at 1 h [1, 5]	solubility ([1]; FaSSIF-V2, 37 °C, fassif)	solubility ([1]; FeSSIF-V2, 37 °C, fessif)	solubility [1, 6]	fraction unbound at […], 500 ng/mL ([2]; isolated protein, pH 7.4)	microsomal CLint at 1 µM [3, 7]	Literature fu (human plasma)	Solubility FaSSGF (1 h) ([1]; 37 °C)	Solubility FaSSIF-V2 (5–6 h) ([1]; 37 °C)	Solubility FeSSIF-V2 (5–6 h) ([1]; 37 °C)	Solubility PBS7.4 (5–6 h) ([1]; 37 °C)	A–B Papp (Caco-2 cell monolayers)	B–A Papp (Caco-2 cell monolayers)	Unbound CLint (human liver microsomes)	HLM CLint (human liver microsomes; human)	Fraction unbound, Albumax [2]	further results
Clc1ccc2c(N3CCN(CCCN4CCN(c5ccnc6cc(Cl)ccc56)CC4)CC3)ccnc2c1 [Piperaquine]	> 2000 µg/mL and > 3700 µM	103 µg/mL and 192 µM	60.7 µg/mL and 113 µM	< 0.5 µg/mL and < 0.9 µM	0.019 ± 0.004	20.1 µL/min/mg	< 0.001	–	–	–	–	–	–	–	–	–	–
CC(C)NC(=N)NC(=N)Nc1ccc(Cl)c(Cl)c1 [Chlorproguanil]	> 2000 µg/mL and > 6940 µM	1100 µg/mL and 3810 µM	1670 µg/mL and 5780 µM	1420 µg/mL and 4930 µM	0.5 ± 0.02	< 7 µL/min/mg	–	–	–	–	–	–	–	–	–	–	solubility ([1]; FaSSGF, FaSSIF-V2, FeSSIF-V2 and PBS pH 7.4, 37 °C, pH 7.4, aqueous buffer): > 2000 µg/mL; Papp B→A ([4]; Caco-2): 61 ± 7.4 ×10⁻⁶ cm/s; efflux ratio ([4]; Caco-2): 3.2; Papp A→B [4, 8]: 19 ± 3 ×10⁻⁶ cm/s
COc1cc2[nH]c(C)c(-c3ccc(Oc4ccc(OC(F)(F)F)cc4)cc3)c(=O)c2cc1Cl [ELQ300]	–	–	–	–	–	–	–	0.929 µg/mL and 1.95 µM	0.524 µg/mL and 1.10 µM	0.065 µg/mL and 0.137 µM	0.102 µg/mL and 0.214 µM	> 300 10^−6 cm/s	> 300 10^−6 cm/s	< 3500^c µL/min/mg	< 7^b µL/min/mg	–	–
CN(C)C[c-]1cccc1CNc1ccnc2cc(Cl)ccc12.[Fe+2].c1cc[cH-]c1 (stereo not shown) [Ferroquine]	–	–	–	–	–	–	–	> 2000 µg/mL and > 4600 µM	320 µg/mL and 738 µM	> 2000 µg/mL and > 4600 µM	4.9 µg/mL and 11 µM	32 ± 6.8 10^−6 cm/s	24 ± 4.1 10^−6 cm/s	108 µL/min/mg	29.2 µL/min/mg	0.52 ± 0.031	efflux ratio (Caco-2 cell monolayers; mean B–A/A–B Papp): 0.8
COc1ccc2nc3cc(Cl)ccc3c(Nc3cc(CN4CCCC4)c(O)c(CN4CCCC4)c3)c2n1 [Pyronaridine]	> 2000 µg/mL and > 3800 µM	> 2000 µg/mL and > 3860 µM	> 2000 µg/mL and > 3800 µM	357 µg/mL and 689 µM	0.69 ± 0.023	8.6 µL/min/mg	< 0.35	–	–	–	–	–	–	–	–	–	Papp B→A ([4]; Caco-2): 41 ± 3 ×10⁻⁶ cm/s; efflux ratio ([4]; Caco-2): 2.6; Papp A→B [4, 8]: 16 ± 2.2 ×10⁻⁶ cm/s
CC(C)(C)NCc1cc(Nc2ccnc3cc(Cl)ccc23)c2c(c1O)CCCC2 [Naphthoquine]	–	–	–	–	–	–	–	> 2000 µg/mL and > 4880 µM	410 µg/mL and 1000 µM	941 µg/mL and 2300 µM	28.5 µg/mL and 69.5 µM	–	–	68.6 µL/min/mg	14.4 µL/min/mg	0.27 ± 0.035	–
COc1cc(NC(C)CCCN)c2ncccc2c1 (stereo not shown) [Primaquine]	–	–	–	–	0.96 ± 0.056	–	0.35-0.55	–	–	–	–	–	–	–	–	–	FaSSGF solubility [1]: > 2000 µg/mL; FaSSIF solubility [1]: > 2000 µg/mL; FeSSIF solubility [1]: > 2000 µg/mL; solubility ([1]; 37 °C, fassgf or other biorelevant): > 2000 µg/mL and > 7700 µM; solubility ([1]; 37 °C, fassif): > 2000 µg/mL and > 7700 µM; solubility ([1]; 37 °C, fessif): > 2000 µg/mL and > 7700 µM; solubility ([1]; 37 °C, pH 7.4, aqueous buffer): > 7.7 mM; Solubility PBS7.4 (5–6 h) ([1]; pH 7.4): > 2000/> 7700 µg/mL; Papp A→B ([4]; Caco-2, pH 7.4): 29 ± 4.5 ×10⁻⁶ cm/s; Papp B→A ([4]; Caco-2, pH 7.4): 34 ± 1.5 ×10⁻⁶ cm/s; microsomal CLint at 1 µM ([3]; microsomes, pH 7.4): 7.7 µL/min/mg
CCCCN(CCCC)CC(O)c1cc(Cl)cc2c1-c1ccc(Cl)cc1/C2=C/c1ccc(Cl)cc1 (stereo not shown) [Lumefantrine]	12.6 µg/mL and 23.8 µM	0.063 µg/mL and 0.119 µM	14.4 µg/mL and 27.2 µM	< 0.05 µg/mL and < 0.1 µM	–	< 7 µL/min/mg	0.003	–	–	–	–	–	–	–	–	–	–
O=C1C(O)=C([C@H]2CC[C@H](c3ccc(Cl)cc3)CC2)C(=O)c2ccccc21 [Atovaquone]	0.26 µg/mL and 0.71 µM	1.83 µg/mL and 4.99 µM	6.41 µg/mL and 17.5 µM	< 0.05 µg/mL and < 0.1 µM	–	< 7 µL/min/mg	0.001	–	–	–	–	–	–	–	–	–	–
CS(=O)(=O)O.FC1CCN(CCOc2ccc(C3CCC4(CC3)OOC3(OO4)C4CC5CC(C4)CC3C5)cc2)CC1 (stereo not shown) [TDD-E209]	–	–	–	–	–	–	–	211 µg/mL and 421 µM	87.2 µg/mL and 174 µM	> 2000 µg/mL and > 4000 µM	0.056 µg/mL and 0.112 µM	> 300 10^−6 cm/s	> 300 10^−6 cm/s	85,000 µL/min/mg	–	0.0070 ± 0.0010	–
CCCCN(CCCC)CCC(O)c1cc2c(Cl)cc(Cl)cc2c2cc(C(F)(F)F)ccc12 (stereo not shown) [Halofantrine]	12.7 µg/mL and 25.4 µM	69.9 µg/mL and 140 µM	739 µg/mL and 1480 µM	< 0.05 µg/mL and < 0.1 µM	–	–	–	–	–	–	–	–	–	–	–	–	fraction unbound at […], 500 ng/mL ([2]; Albumax medium, pH 7.4): 0.008 ± 0.001; microsomal CLint at 1 µM ([3]; microsomes, pH 7.4, HLM CLint): 26.9 µL/min/mg; Unbound CLint (human liver microsomes; human, 1 µM, pH 7.4): 13,500 µL/min/mg
C[C@H]1[C@@H](O)O[C@@H]2O[C@@]3(C)CC[C@H]4[C@H](C)CC[C@@H]1[C@@]24OO3 [Dihydroartemisinin]	140 µg/mL and 492 µM	–	–	–	–	16.6 µL/min/mg	0.092	–	–	–	–	–	–	–	–	–	Papp B→A ([4]; Caco-2, pH 7.4): 49 ± 1.2 ×10⁻⁶ cm/s; Papp A→B ([4]; Caco-2, pH 7.4, A–B Papp, matrix: pH 7.4 buffer): 50 ± 2.3 ×10⁻⁶ cm/s; fraction unbound at […], 500 ng/mL ([2]; isolated protein, pH 7.4, instability evident, estimate only): 0.34 ± 0.018
COc1cc(N[C@H](C)CCCN)c2nccc(C)c2c1Oc1ccc(Cl)c(Cl)c1 [NPC1161B]	–	–	–	–	–	–	–	1520 µg/mL and 3500 µM	19.9 µg/mL and 45.8 µM	> 2000 µg/mL and > 4600 µM	5.44 µg/mL and 12.5 µM	> 300 10^−6 cm/s	> 300 10^−6 cm/s	–	< 7^b µL/min/mg	0.035 ± 0.0020	–
